How the values were obtained:
Assay type in all cases: cell-based
[1] = target: T1, 17β-hydroxysteroid dehydrogenase type 3 (17β-HSD type 3) (Homo sapiens, UniProt P37058); assay: Inhibition of 17β-HSD type 3 in MCF-7 cells stably expressing the isoenzyme (tritium labeled androstenedione conversion, HPLC); details: MCF7, MCF-7 cells expressing 17β-HSD type 3, 2 nM tritium labeled androstenedione; for inhibition at 1 µM: 1 μM test compound, read-out: % Inhibition HSD3 1 μM; for inhibition at 10 µM: 10 μM test compound, read-out: % Inhibition HSD3 10 μM
T1 construct: expressed in transfected cells; host or cells: MCF-7
T1 sequence (P37058 1-310): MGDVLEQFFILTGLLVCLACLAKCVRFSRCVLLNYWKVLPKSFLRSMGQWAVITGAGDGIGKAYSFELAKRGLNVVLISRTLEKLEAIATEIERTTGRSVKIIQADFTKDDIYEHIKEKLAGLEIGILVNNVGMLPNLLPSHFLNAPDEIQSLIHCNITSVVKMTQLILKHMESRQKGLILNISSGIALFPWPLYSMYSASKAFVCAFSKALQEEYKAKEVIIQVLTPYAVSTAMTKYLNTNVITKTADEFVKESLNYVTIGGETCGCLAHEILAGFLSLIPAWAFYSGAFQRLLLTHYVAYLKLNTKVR
Excerpt: (§1) Biological Testing Materials and Methods 1. Inhibition of the 17β-hydroxysteroid dehydrocienase type 1, type 2 and type 3 enzyme
(§2) The compounds were screened in respect of 17β-HSD enzyme activity in vitro on established MCF-7 cell lines, each stably expressing one of the respective 17β-HSD isoenzymes. The interconversion of substrate by each isoenzyme and the 17β-HSD inhibiting activity of chemical compounds in these cell lines were detected by HPLC system.
(§3) Varying amounts of the test compounds were incubated in the growth medium of the 17β-HSD expressing cells together tritium labeled substrate (2 nM estrone for 17β-HSD type 1; 2 nM estradiol for 17β-HSD type 2; and 2 nM androstenedione for 17β-HSD type 3). The medium samples were removed after exact incubation time and the reaction is stopped by trichloroacetic acid (TCA). The samples were analyzed by HPLC-coupled flow scintillation analysis.
(§4) For each enzyme type, the HSD-inhibiting activity of an individual test compound was calculated by comparing the conversion of a control sample without any test compound (referred to as “Negative Control”) to the (reduced) conversion of the test sample containing the particular compound to be tested (referred to as “Test Sample”).
(§5) Two concentrations of each compound were used. The number of the compound refers to the numbers indicated in the Experimental Section.

[2] = target: T2, 17β-hydroxysteroid dehydrogenase type 1 (17β-HSD type 1) (Homo sapiens, UniProt P14061); assay: Inhibition of 17β-HSD type 1 in MCF-7 cells stably expressing the isoenzyme (tritium labeled estrone conversion, HPLC); details: MCF7, MCF-7 cells expressing 17β-HSD type 1, 2 nM tritium labeled estrone; for inhibition at 1 µM: 1 μM test compound, read-out: % Inhibition HSD1 1 μM; for inhibition at 10 µM: 10 μM test compound, read-out: % Inhibition HSD1 10 μM
T2 construct: expressed in transfected cells; host or cells: MCF-7
T2 sequence (P14061 1-328): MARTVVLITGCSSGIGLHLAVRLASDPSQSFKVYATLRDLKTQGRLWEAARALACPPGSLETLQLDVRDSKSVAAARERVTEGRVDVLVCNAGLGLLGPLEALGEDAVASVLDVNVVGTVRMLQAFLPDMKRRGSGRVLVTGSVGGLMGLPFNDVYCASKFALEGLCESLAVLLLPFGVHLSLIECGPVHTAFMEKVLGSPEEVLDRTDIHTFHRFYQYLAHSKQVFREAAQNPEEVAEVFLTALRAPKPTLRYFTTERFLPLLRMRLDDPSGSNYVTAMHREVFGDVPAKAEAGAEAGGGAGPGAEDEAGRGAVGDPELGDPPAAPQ
Excerpt: as §1, §2, §3, §4, §5

[3] = target: T3, 17β-hydroxysteroid dehydrogenase type 2 (17β-HSD type 2) (Homo sapiens, UniProt P37059); assay: Inhibition of 17β-HSD type 2 in MCF-7 cells stably expressing the isoenzyme (tritium labeled estradiol conversion, HPLC); details: MCF7, MCF-7 cells expressing 17β-HSD type 2, 2 nM tritium labeled estradiol; for inhibition at 1 µM: 1 μM test compound, read-out: % Inhibition HSD2 1 μM; for inhibition at 10 µM: 10 μM test compound, read-out: % Inhibition HSD2 10 μM
T3 construct: expressed in transfected cells; host or cells: MCF-7
T3 sequence (P37059 1-387): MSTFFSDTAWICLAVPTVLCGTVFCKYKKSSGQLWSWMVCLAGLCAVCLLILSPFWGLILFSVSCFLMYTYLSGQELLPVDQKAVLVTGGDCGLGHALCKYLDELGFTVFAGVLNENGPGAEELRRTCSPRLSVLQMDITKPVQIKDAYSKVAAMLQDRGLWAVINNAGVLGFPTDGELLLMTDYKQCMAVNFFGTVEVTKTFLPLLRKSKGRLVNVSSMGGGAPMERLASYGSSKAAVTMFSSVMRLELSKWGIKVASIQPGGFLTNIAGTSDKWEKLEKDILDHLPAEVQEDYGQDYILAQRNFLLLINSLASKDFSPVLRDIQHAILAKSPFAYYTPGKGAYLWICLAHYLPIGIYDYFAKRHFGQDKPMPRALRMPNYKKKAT
Excerpt: as §1, §2, §3, §4, §5

| SMILES | inhibition at 1 µM [1] [%] | inhibition at 10 µM [1] [%] | inhibition at 1 µM [2] [%] | inhibition at 10 µM [2] [%] | inhibition at 1 µM [3] [%] | inhibition at 10 µM [3] [%] |
| --- | --- | --- | --- | --- | --- | --- |
| COc1ccc(-c2nc3sc4c(c3c(=O)n2-c2ccccc2)CCCC4=O)cc1 [No. 23, 3-Phenyl-2-(p-methoxyphenyl)-6,7-dihydro-3H,5H-benzo[4,5]thieno[2,3-d]pyrimidin-4,8-dione] | 6.8 | 15.4 | 18.6 | 45.3 | 6.8 | 9.4 |
| Cc1nc2sc3c(c2c(=O)n1-c1ccccc1)CCCC3 [No. 24, 2-Methyl-3-phenyl-5,6,7,8-tetrahydro-3H-benzo[4,5]thieno[2,3-d]pyrimidin-4-one] | 17.1 | 30.9 | -7.5 | 15.4 | 4.1 | 9.7 |
| Cc1nc2sc3c(c2c(=O)n1-c1ccccc1)CCCC3=O [No. 25, 2-Methyl-3-phenyl-6,7-dihydro-3H,5H-benzo[4,5]thieno[2,3-d]pyrimidine-4,8-dione] | 25.7 | 29 | 5.9 | 13.8 | 5.5 | 7.9 |
| COC(=O)Cc1nc2sc3c(c2c(=O)n1Cc1ccccc1)CCCC3 [No. 26, 2-(acetic acid methyl ester)-3-benzyl-5,6,7,8-tetrahydro-3H-benzo[4,5]thieno[2,3-d]pyrimidin-4-one] | -6.1 | 7.1 | 23.5 | 37.4 | -1.8 | 32.3 |
| COCc1nc2sc3c(c2c(=O)n1Cc1ccccc1)CCCC3 [No. 27, 3-Benzyl-2-methoxymethyl-5,6,7,8-tetrahydro-3H-benzo[4,5]thieno[2,3-d]pyrimidin-4-one] | -14.4 | 12.2 | 11.2 | 32.3 | 8.5 | 7.2 |
| O=c1c2c3c(sc2nc(CO)n1Cc1ccccc1)CCCC3 [No. 28, 3-Benzyl-2-hydroxymethyl-5,6,7,8-tetrahydro-3H-benzo[4,5]thieno[2,3-d]pyrimidin-4-one] | 1.9 | 16.7 | 2.6 | 18 | 12.9 | 16.3 |
| CC(=O)OCc1nc2sc3c(c2c(=O)n1Cc1ccccc1)CCCC3 [No. 29, Acetic acid 3-benzyl-4-oxo-3,4,5,6,7,8-hexahydro-benzo[4,5]thieno[2,3-d]pyrimidin-2-ylmethyl ester] | 16.9 | 28.4 | 9 | 15.5 | 8.5 | 21.1 |
| CC(=O)OCc1nc2sc3c(c2c(=O)n1Cc1ccccc1)CCCC3=O [No. 30, Acetic acid 3-benzyl-4,8-dioxo-3,4,5,6,7,8-hexahydro-benzo[4,5]thieno[2,3-d]pyrimidin-2-ylmethyl ester] | -1.2 | 16.3 | 25.4 | 39.7 | 20.2 | 19.1 |
| COCc1nc2sc3c(c2c(=O)n1Cc1ccccc1)CCCC3=O [No. 31, 3-Benzyl-2-methoxymethyl-6,7-dihydro-3H,5H-benzo[4,5]thieno[2,3-d]pyrimidine-4,8-dione] | -1.3 | 10.8 | 12 | 39.7 | -0.5 | 5.1 |
| COC(=O)c1nc2sc3c(c2c(=O)n1Cc1ccccc1)CCCC3=O [No. 32, 3-Benzyl-4,8-dioxo-3,4,5,6,7,8-hexahydro-benzo[4,5]thieno[2,3-d]pyrimidine-2-carboxylic acid methyl ester] | 9.6 | 70 | 37.2 | 86.6 | 9.8 | 19.5 |
| O=Cc1nc2c(c(=O)n1Cc1ccccc1)C1=C(CCCC1)S2(=O)=O [No. 33, 3-Benzyl-4,9,9-trioxo4,5,6,7,8,9-hexahydro-3H-9lambda*6*-benzo[4,5]thieno[2,3-d]pyrimidine-2-carbaldehyde] | 1.9 | 0.1 | 17.6 | 67.3 | 16.3 | 18.7 |
| COCc1nc2sc3c(c2c(=O)n1Cc1ccccc1)CCC(C=O)=C3Cl [No. 34, 3-Benzyl-8-chloro-2-methoxymethyl-4-oxo-3,4,5,6-tetrahydro-benzo[4,5]thieno[2,3-d]pyrimidine-7-carbaldehyde] | 15.8 | 100 | 12.5 | 64.2 | -1.5 | 25.3 |
| COCc1nc2sc3c(Cl)c(C=O)c(C(=O)O)c(O)c3c2c(=O)n1Cc1ccccc1 [No. 35, 3-Benzyl-8-chloro-7-formyl-5-hydroxyl-2-methoxymethyl-4-oxo-benzo[4,5]thieno[2,3-d]pyrimidine-6-carboxylic acid] | 14.7 | 82.3 | 8.8 | 28.6 | -6.8 | 28.7 |
| COCc1nc2sc3c(c2c(=O)n1-c1ccccc1)CCCC3 [No. 36, 2-Methoxymethyl-3-phenyl-5,6,7,8-tetrahydro-3H-benzo[4,5]thieno[2,3-d]pyrimidin-4-one] | -0.9 | 7.6 | 20.7 | 22.4 | -6.8 | 28.7 |
| COCc1nc2sc3c(c2c(=O)n1-c1ccccc1)CCCC3=O [No. 37, 2-Methoxymethyl-3-phenyl-6,7-dihydro-3H,5H-benzo[4,5]thieno[2,3-d]pyrimidin-4,8-dione] | 9.2 | 22.2 | 9.7 | 21.4 | -0.2 | 9 |
| O=c1c2c3c(sc2nc(CO)n1-c1ccccc1)CCCC3 [No. 38, 2-Hydroxymethyl-3-phenyl-5,6,7,8-tetrahydro-3H-benzo[4,5]thieno[2,3-d]pyrimidin-4-one] | 14.2 | 17.6 | 0.3 | 23.6 | 11.4 | 33.4 |
| CC(=O)OCc1nc2sc3c(c2c(=O)n1-c1ccccc1)CCCC3 [No. 39, Acetic acid 4-oxo-3-phenyl-3,4,5,6,7,8-hexahydro-benzo[4,5]thieno[2,3-d]pyrimidin-2-ylmethyl ester] | 18.5 | 12.8 | 21.1 | 13.2 | 25 | 9.5 |
